Values of other authors in patent publication US6747006B2, “Use of GLP-1 or analogs in treatment of myocardial infarction” (Eli Lilly and Company, priority 1996, dated 2004).

Test system: diabetic patients during acute myocardial infarction
Settings: insulin and glucose infusion, then subcutaneous multidose insulin; compared with control group of diabetics without insulin treatment

Insulin: insulin given as control by continuous infusion or subcutaneous injection
lowering of mortality during the year following myocardial infarction: 30%
